Assay [1] addresses T1, human BRD4 bromodomain II (Homo sapiens, UniProt O60885).
T1 construct: human BRD4 bromodomain II [based on Genbank NM_058243, residues 349-460]; host or cells: E. coli
Put plainly: Bromodomain binding assay (AlphaScreen), BRD4 BDII. Conditions: AlphaScreen assay, Table C2; read-out: BRD4 BDII IC50. The method, boiled down:
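Tagged BRD4 BDI or BDII constructs, expressed in E. coli, competed against a K5/K8/K12/K16-acetylated biotin-H4 peptide. Proximity signal between bead pairs after room-temperature incubations gave concentration-response curves, from which IC50 was derived.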

The subject of assay [2] is human SKM-1 acute myeloid leukemia cells. Kind of assay: SKM-1 antiproliferation cell-based assay (ATPlite). Conditions: Homo sapiens, SKM-1, 96 h, SKM-1 antiproliferation assay, 4 days, Table C2. The method, boiled down:
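Log-phase cells in RPMI 1640/15% FBS were seeded at 34722 cells/mL and exposed for 4 days to nine-concentration DMSO serial dilutions in triplicate. Viability was read as ATP luminescence (ATPlite 1step), and IC50 values came from variable-slope non-linear regression.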
In general terms: In ATP-based viability assays light output follows the ATP content of the culture.

One may read the IC50 as the concentration that inhibits the measured activity by half. For orientation: GI50 means the concentration at which growth is held to half of that of the control. High values mean lower sensitivity of the cells, low ones greater sensitivity of the cells.

Turning to `CC(=O)NC1(c2cccc(-c3cc(F)cc(-c4ccc(-n5ccn(C)c5=O)c(Cl)c4)c3O)c2)CC1` [Example 764, N-(1-(3″-chloro-5′-fluoro-2′-hydroxy-4″-(3-methyl-2-oxo-2,3-dihydro-1H-imidazol-1-yl)-[1,1′:3′,1″-terphenyl]-3-yl)cyclopropyl)acetamide], in assay [1], the half-maximal inhibitory concentration (IC50) was in the range of 1 to 10 nM. Also, in assay [2], the concentration for 50% growth inhibition (GI50) lay within 300 to 3000 nM.

Turning to `Cn1ccn(-c2ccc(-c3cc(F)cc(-c4cc(N5CC[C@](C)(N)C5)n(C)c(=O)c4)c3O)cc2Cl)c1=O` [Example 765, (S)-6-(3-amino-3-methylpyrrolidin-1-yl)-4-(3′-chloro-5-fluoro-2-hydroxy-4′-(3-methyl-2-oxo-2,3-dihydro-1H-imidazol-1-yl)-[1,1′-biphenyl]-3-yl)-1-methylpyridin-2(1H)-one], in assay [1], the concentration for half-maximal inhibition (IC50) was in the range of 1 to 10 nM. Further, in assay [2], the GI50 was in the range of 0.3 to 30 nM.

As to `Cc1ccc(-c2cc(F)cc(-c3ccc(-n4ccn(C)c4=O)c(Cl)c3)c2O)cc1C(N)=O` [Example 766], the 50% inhibitory concentration (IC50) in assay [1] was in the range of 1 to 10 nM. This molecule also gave a GI50 in assay [2] of 30 to 300 nM.

For `CC(=O)NC1CN(c2cc(-c3cc(F)cc(-c4ccc(-n5ccn(C)c5=O)c(Cl)c4)c3O)ccn2)CC12CC2` (stereo not shown) [Example 767, N-(5-(4-(3′-chloro-5-fluoro-2-hydroxy-4′-(3-methyl-1-oxo-2,3-dihydro-1H-imidazol-1-yl)-[1,1′-biphenyl]-3-yl)pyridin-2-yl)-5-azaspiro[2.4]heptan-7-yl)acetamide], the half-inhibitory concentration (IC50) in assay [1] fell in the range of 0.01 to 1 nM. The molecule further yielded a concentration for 50% growth inhibition (GI50) in assay [2] of 0.3 to 30 nM.

`CC(=O)NC1(C)CN(c2cc(-c3cc(F)cc(-c4ccc(-n5ccn(C)c5=O)c(Cl)c4)c3O)ccn2)C1` [Example 768, N-(1-(4-(3′-chloro-5-fluoro-2-hydroxy-4′-(3-methyl-2-oxo-2,3-dihydro-1H-imidazol-1-yl)-[1,1′-biphenyl]-3-yl)pyridin-2-yl)-3-methylazetidin-3-yl)acetamide]: the 50% inhibitory concentration (IC50) in assay [1] fell in the range of 1 to 10 nM. The same molecule returned a GI50 in assay [2] of 30 to 300 nM.

For `Cn1ccn(-c2ccc(-c3cc(F)cc(-c4ccnc(N5CCC(C)(C(=O)O)C5)c4)c3O)cc2Cl)c1=O` (stereo not shown) [Example 769, 1-(4-(3′-chloro-5-fluoro-2-hydroxy-4′-(3-methyl-2-oxo-2,3-dihydro-1H-imidazol-1-yl)-[1,1′-biphenyl]-3-yl)pyridin-2-yl)-3-methylpyrrolidine-3-carboxylic acid], the IC50 in assay [1] was in the range of 1 to 10 nM. The 50% growth inhibitory concentration (GI50) in assay [2] is 300 to 3000 nM.

Regarding `Cn1ccn(-c2ccc(-c3cc(F)cc(-c4ccnc(N5CC6CC6(O)C5)c4)c3O)cc2Cl)c1=O` (stereo not shown) [Example 770, 1-(3-chloro-5′-fluoro-2′-hydroxy-3′-(2-(1-hydroxy-3-azabicylco[3.1.0]hexan-3-yl)pyridin-4-yl)-[1,1′-biphenyl]-4-yl)-3-methyl-1H-imidazol-2(3H)-one], the IC50 in assay [1] lay in the range of 1 to 10 nM. Also, the 50% growth inhibitory concentration (GI50) in assay [2] is 30 to 300 nM.

Turning to `Cn1ccn(-c2ccc(-c3cc(F)cc(-c4cccc(C#CC(C)(C)N)c4)c3O)cc2Cl)c1=O` [Example 771, 1-(3″-(3-amino-3-methylbut-1-yn-1-yl)-3-chloro-5′-fluoro-2′-hydroxy-[1,1′:3′,1″-terphenyl]-4-yl)-3-methyl-1H-imidazol-2(3H)-one], the concentration for half-maximal inhibition (IC50) in assay [1] lay within 1 to 10 nM. In assay [2], this molecule registered a GI50 of 30 to 300 nM.

Regarding `Cn1ccn(-c2ccc(-c3cc(F)cc(-c4cccc(C#CC(C)(C)O)c4)c3O)cc2Cl)c1=O` [Example 772, 1-(3-chloro-5′-fluoro-2′-hydroxy-3″-(3-hydroxy-3-methylbut-1-yn-1-yl)-[1,1′:3′,1″-terphenyl]-4-yl)-3-methyl-1H-imidazol-2(3H)-one], in assay [1], the IC50 is 10 to 100 nM. Moreover, the concentration for 50% growth inhibition (GI50) in assay [2] fell in the range of 300 to 3000 nM.

As for `Cn1ccn(-c2ccc(-c3cc(F)cc(-c4ccnc(N5CCC(C)(C(N)=O)C5)c4)c3O)cc2Cl)c1=O` (stereo not shown) [Example 773, 1-(4-(3′-chloro-5-fluoro-2-hydroxy-4′-(3-methyl-2-oxo-2,3-dihydro-1H-imidazol-1-yl)-[1,1′-biphenyl]-3-yl)pyridin-2-yl)-3-methylpyrrolidine-3-carboxamide], in assay [1], the concentration for half-maximal inhibition (IC50) lay within 1 to 10 nM. The molecule also gave a GI50 in assay [2] of 30 to 300 nM.

For the molecule `CC(=O)N[C@@]1(C)CCN(c2cc(-c3cc(F)cc(-c4ccc(-n5ccn(C)c5=O)c(Cl)c4)c3O)cc(=O)n2C)C1` [Example 774, (S)-N-(1-(4-(3′-chloro-5-fluoro-2-hydroxy-4′-(3-methyl-2-oxo-2,3-dihydro-1H-imidazol-1-yl)-[1,1′-biphenyl]-3-yl)-1-methyl-6-oxo-1,6-dihydropyridin-2-yl)-3-methylpyrrolidin-3-yl)acetamide], the IC50 in assay [1] was in the range of 1 to 10 nM. For the same molecule, the 50% growth inhibitory concentration (GI50) in assay [2] fell in the range of 30 to 300 nM.

On to `Cn1ccn(-c2ccc(-c3cc(F)cc(-c4ccc(F)c(N5CC[C@@](C)(O)C5)c4)c3O)cc2Cl)c1=O` [Example 775, (R)-1-(3-chloro-4″,5′-difluoro-2′-hydroxy-3″-(3-hydroxy-3-methylpyrrolidin-1-yl)-[1,1′:3′,1″-terphenyl]-4-yl)-3-methyl-1H-imidazol-2(3H)-one], for which the IC50 in assay [1] lay in the range of 1 to 10 nM. In assay [2], this molecule registered a GI50 of 30 to 300 nM.

For the molecule `Cn1ccn(-c2ccc(-c3cc(F)cc(-c4ccnc(N5CCC(C)(NC(=O)OC(C)(C)C)C5)c4)c3O)cc2Cl)c1=O` (stereo not shown) [Example 776, tert-butyl (1-(4-(3′-chloro-5-fluoro-2-hydroxy-4′-(3-methyl-2-oxo-2,3-dihydro-1H-imidazol-1-yl)-[1,1′-biphenyl]-3-yl)pyridin-2-yl)-3-methylpyrrolidin-3-yl)carbamate], in assay [1], the IC50 was in the range of 10 to 100 nM. Moreover, in assay [2], the GI50 was 30 to 300 nM.

For the molecule `Cn1ccn(-c2ccc(-c3cc(F)cc(-c4cc(N5CC[C@@](C)(O)C5)n(C)c(=O)c4)c3O)cc2Cl)c1=O` [Example 777, (R)-4-(3′-chloro-5-fluoro-2-hydroxy-4′-(3-methyl-2-oxo-2,3-dihydro-1H-imidazol-1-yl)-[1,1′-biphenyl]-3-yl)-6-(3-hydroxy-3-methylpyrrolidin-1-yl)-1-methylpyridin-2(1H)-one], the half-inhibitory concentration (IC50) in assay [1] is 0.01 to 1 nM. In assay [2], this molecule yielded a 50% growth inhibitory concentration (GI50) of 0.3 to 30 nM.

In the case of `Cn1ccn(-c2ccc(-c3cc(F)cc(-c4ccnc(N5CCC(C)(N)CC5)c4)c3O)cc2Cl)c1=O` [Example 778], the concentration for half-maximal inhibition (IC50) in assay [1] was 1 to 10 nM. In assay [2], this molecule gave a GI50 of 0.3 to 30 nM.

Consider `Cn1ccn(-c2ccc(-c3cc(F)cc(-c4ccnc(N5CC(C)(O)C6(CC6)C5)c4)c3O)cc2Cl)c1=O` (stereo not shown) [Example 779, 1-(3-chloro-5′-fluoro-2′-hydroxy-3′-(2-(7-hydroxy-7-methyl-5-azaspiro[2.4]heptan-5-yl)pyridin-4-yl)-[1,1′-biphenyl]-4-yl)-3-methyl-1H-imidazol-2(3H)-one], for which the IC50 in assay [1] lay in the range of 1 to 10 nM. For the same molecule, the concentration for 50% growth inhibition (GI50) in assay [2] lay in the range of 0.3 to 30 nM.

Consider `CC(=O)NC1(C)C2CCC1CN(c1cc(-c3cc(F)cc(-c4ccc(-n5ccn(C)c5=O)c(Cl)c4)c3O)ccn1)C2` (stereo not shown) [Example 780, N-(3-(4-(3′-chloro-5-fluoro-2-hydroxy-4′-(3-methyl-2-oxo-2,3-dihydro-1H-imidazol-1-yl)-[1,1′-biphenyl]-3-yl)pyridin-2-yl)-8-methyl-3-azabicyclo[3.2.1]octan-8-yl)acetamide], for which the IC50 in assay [1] fell in the range of 1 to 10 nM. For the same molecule, the GI50 in assay [2] is 30 to 300 nM.

In the case of `Cn1ccn(-c2ccc(-c3cc(F)cc(-c4ccnc(N5C[C@@H](O)[C@H](F)C5)c4)c3O)cc2Cl)c1=O` [Example 781, 1-(3-chloro-5′-fluoro-3′-(2-((3R,4R)-3-fluoro-4-hydroxypyrrolidin-1-yl)pyridin-4-yl)-2′-hydroxy-[1,1′-biphenyl]-4-yl)-3-methyl-1H-imidazol-2(3H)-one], the half-maximal inhibitory concentration (IC50) in assay [1] lay in the range of 1 to 10 nM. For the same molecule, the concentration for 50% growth inhibition (GI50) in assay [2] fell in the range of 30 to 300 nM.

Regarding `CC(=O)NC1(C)CCN(c2cc(-c3cc(F)cc(-c4ccc(-n5ccn(C)c5=O)c(Cl)c4)c3O)ccn2)C1` (stereo not shown) [Example 782, N-(1-(4-(3′-chloro-5-fluoro-2-hydroxy-4′-(3-methyl-2-oxo-2,3-dihydro-1H-imidazol-1-yl)-[1,1′-biphenyl]-3-yl)pyridin-2-yl)-3-methylpyrrolidin-3-yl)acetamide], the IC50 in assay [1] was 0.01 to 1 nM. This molecule came in with a GI50 in assay [2] of 30 to 300 nM.

For `Cn1ccn(-c2ccc(-c3cc(F)cc(-c4ccnc(N5CC(C)(C)C(C)(O)C5)c4)c3O)cc2Cl)c1=O` (stereo not shown) [Example 783, 1-(3-chloro-5′-fluoro-2′-hydroxy-3′-(2-(3-hydroxy-3,4,4-trimethylpyrrolidin-1-yl)pyridin-4-yl)-[1,1′-biphenyl]-4-yl)-3-methyl-1H-imidazol-2(3H)-one], the 50% inhibitory concentration (IC50) in assay [1] lay in the range of 0.01 to 1 nM. In addition, the 50% growth inhibitory concentration (GI50) in assay [2] fell in the range of 0.3 to 30 nM.

For `Cn1ccn(-c2ccc(-c3cc(F)cc(-c4ccnc(N5CCC(O)(C(F)(F)F)C5)c4)c3O)cc2Cl)c1=O` (stereo not shown) [Example 784, 1-(3-chloro-5′-fluoro-2′-hydroxy-3′-(2-(3-hydroxy-3-(trifluoromethyl)pyrrolidin-1-yl)pyridin-4-yl)-[1,1′-biphenyl]-4-yl)-3-methyl-1H-imidazol-2(3H)-one], the IC50 in assay [1] was 1 to 10 nM. This molecule registered a GI50 in assay [2] of 30 to 300 nM.

Take `Cn1ccn(-c2ccc(-c3cc(F)cc(-c4ccnc(N5CC6CCC(C5)C6(C)O)c4)c3O)cc2Cl)c1=O` (stereo not shown) [Example 785, 1-(3-chloro-5′-fluoro-2′-hydroxy-3′-(2-(8-hydroxy-8-methyl-3-azabicyclo[3.2.1]octan-3-yl)pyridin-4-yl)-[1,1′-biphenyl]-4-yl)-3-methyl-1H-imidazol-2(3H)-one]: the IC50 in assay [1] lay within 1 to 10 nM. In assay [2], this molecule gave a concentration for 50% growth inhibition (GI50) of 30 to 300 nM.

For `Cn1ccn(-c2ccc(-c3cc(F)cc(-c4ccnc(N5C[C@H](O)[C@@H](F)C5)c4)c3O)cc2Cl)c1=O` [Example 786, 1-(3-chloro-5′-fluoro-3′-(2-((3S,4S)-3-fluoro-4-hydroxypyrrolidin-1-yl)pyridin-4-yl)-2′-hydroxy-[1,1′-biphenyl]-4-yl)-3-methyl-1H-imidazol-2(3H)-one], in assay [1], the half-inhibitory concentration (IC50) lay within 1 to 10 nM. For the same molecule, the GI50 in assay [2] fell in the range of 30 to 300 nM.
